# Calls of active or inactive are those of the source.
# How the values were obtained:
# [1] = target: Glyceraldehyde-3-phosphate dehydrogenase (Homo sapiens, UniProt P04406)
# Paired box protein Pax-8 = Paired box protein Pax-8 (Homo sapiens, UniProt Q06710); experiment: inhibitors of PAX8-driven TPO luciferase reporter, dose response, RMG-I cells, cherry-pick (AID 687027); type: functional, cell-based;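 further: luciferase reporter driven by Pax8 target thyroperoxidase promoter measured by SteadyGlo luminescence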
# P388/ADR = experiment: cells; type: functional; settings: Mus musculus
# SN12K1 = experiment: cells; type: functional; settings: Homo sapiens
# P388 = experiment: cells; type: functional; settings: Mus musculus
# Fatty acid synthase [2] = target: T1, Fatty acid synthase (Homo sapiens, UniProt P49327); experiment: FAS thioesterase domain inhibitors, dose response, biochemical, endpoint fluorescence intensity, uHTS hits (AID 624327); type: functional;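 further: fluorescence from hydrolysis of an O-methyl fluorescein acyl ester substrate by the enzyme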
# Fatty acid synthase [3] = target: T1, Fatty acid synthase; experiment: FAS thioesterase domain inhibitors, dose response, biochemical, kinetic fluorescence intensity (AID 624326); type: functional;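 further: rate of fluorescence rise from hydrolysis of a fluorogenic O-methyl fluorescein ester substrate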
# [4] = target: Induced myeloid leukemia cell differentiation protein Mcl-1 (Homo sapiens, UniProt Q07820); type: functional
# [5] = target: T2, High affinity choline transporter 1 (Homo sapiens, UniProt Q9GZV3); experiment: CHT inhibitors, dose response, cell-based, 5-point CRC, membrane potential dye (AID 504840); type: functional
# T2 sequence (Q9GZV3 whole entry): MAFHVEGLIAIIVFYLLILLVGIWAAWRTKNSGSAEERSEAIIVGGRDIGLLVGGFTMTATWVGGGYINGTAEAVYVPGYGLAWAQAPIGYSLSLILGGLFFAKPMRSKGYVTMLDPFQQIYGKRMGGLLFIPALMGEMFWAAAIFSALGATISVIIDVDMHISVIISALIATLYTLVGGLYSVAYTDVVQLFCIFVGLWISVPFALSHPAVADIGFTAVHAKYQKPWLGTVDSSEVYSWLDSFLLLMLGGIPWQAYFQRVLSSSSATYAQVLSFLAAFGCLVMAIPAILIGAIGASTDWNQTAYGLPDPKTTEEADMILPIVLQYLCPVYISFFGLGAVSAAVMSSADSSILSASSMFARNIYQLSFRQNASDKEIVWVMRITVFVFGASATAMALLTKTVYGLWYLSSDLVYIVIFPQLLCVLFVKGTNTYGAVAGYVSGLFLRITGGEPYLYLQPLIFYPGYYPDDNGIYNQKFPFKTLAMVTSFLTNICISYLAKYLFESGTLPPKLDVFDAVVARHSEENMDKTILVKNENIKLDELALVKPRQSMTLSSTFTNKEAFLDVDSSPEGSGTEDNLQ
# [6] = microbe, parasite or virus in culture; type: functional; settings: Mycobacterium tuberculosis
# [7] = growth suppression of PTEN-null colon cells, dose response, cell-based, HCT116 PTEN knockout (AID 1047); type: functional;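 further: HCT116 colon tumor cells with PTEN knocked out; cells exposed to compound for 60 hours before readout; potency for loss of cell viability measured by luminescence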
# [8] = growth suppression of beta-catenin-knockout colon cells, dose response, cell-based, HCT116, human colon tumor (AID 1045); type: functional;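 further: HCT116 colon tumor cells with beta catenin knocked out; cells exposed to compound for 60 hours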
# [9] = target: T3, Polyadenylate-binding protein 1 (Homo sapiens, UniProt P11940); experiment: PABP1 MLLE–PAM2 interaction inhibitors, dose response, miRNA deadenylation inhibitor project, biochemical, fluorescence polarization, Cy5-PAM2 peptide, secondary (AID 602260); type: functional; settings: read-out: IC50_Mean
# [10] = target: T3, Polyadenylate-binding protein 1; experiment: PABP1 MLLE–PAM2 binding inhibitor potency, dose response, biochemical, fluorescence polarization, FITC-PAM2 peptide (AID 602259); type: functional; settings: read-out: IC50_Mean
# [11] = Shn3 3'UTR reporter inhibitors, dose response, cell-based, Clone20 osteoblasts, firefly luciferase, cherry-picked (AID 624132); type: functional;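 further: firefly luciferase luminescence from reporter carrying the Shn3 3'UTR in osteoblasts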
# [12] = HepG2 cell cytotoxicity, dose response, cytotoxicity control for Shn3 inhibitor project, CellTiter-Glo, cherry-picked (AID 624134); type: functional, cell-based
# [13] = cytotoxicity toward NIH3T3 fibroblasts, dose response, counter-screen, cell-based, ATP luminescence, mouse fibroblasts (AID 2010); type: functional;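 further: cells exposed to compound for about 90 hours before reading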
# [14] = inhibitors of intracellular T. cruzi replication, confirmation, NIH3T3 host cells, beta-gal luminescence (AID 2044); type: functional, cell-based;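 further: intracellular parasites grown in NIH/3T3 mouse fibroblasts as host cells; luminescent beta-galactosidase reporter signal from transgenic T. cruzi replicating inside host cells; inhibitors lower the luminescence signal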
# [15] = Luminescence Cell-Based Dose Retest to Confirm Inhibitors of Cancer Stem Cells. [Related pubchem assays (depositor defined):AID2717, AID2721]; type: functional; settings: Homo sapiens
# [16] = HEp-2 cell cytotoxicity, dose response, cytotoxicity control for RSV inhibitor project, HTS (AID 2410); type: functional; settings: human respiratory syncytial virus
# H9c2 = experiment: cells; type: functional, cell-based; settings: Rattus norvegicus, H9c2, Myocardium;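 further: confirmatory concentration-response retest of ultra-high-throughput screening hits for modulation of myocardial damage; cell death induced by hydrogen peroxide oxidative stress; compound pretreatment for 60 min then peroxide exposure for 2 h; potency is for protecting the cells against peroxide damage rather than for killing them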
# [17] = C. albicans growth with fluconazole, confirmation, fluorescence, retest (AID 2467); type: functional, cell-based
# [18] = NIH-3T3 fibroblast cytotoxicity, dose response, cytotoxicity control, cell-based, fluorescence, Alamar Blue, secondary assay (AID 2327); type: functional;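 further: NIH-3T3 mouse fibroblasts cultured with fluconazole at 8 µg/mL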
# [19] = target: FAD-linked sulfhydryl oxidase ALR (Homo sapiens, UniProt P55789); experiment: inhibitors of human ALR sulfhydryl oxidase, dose response, biochemical, H2O2 detection, luminescence, cherry-pick (AID 493248)
# [20] = target: T4, Rac GTPase-activating protein 1 (Homo sapiens, UniProt Q9H0H5); experiment: MgcRacGAP GTPase-activating activity inhibitors, confirmation, biochemical, ADP Hunter fluorescence, primary and confirmatory (AID 624330); type: functional
# T4 sequence (Q9H0H5 whole entry): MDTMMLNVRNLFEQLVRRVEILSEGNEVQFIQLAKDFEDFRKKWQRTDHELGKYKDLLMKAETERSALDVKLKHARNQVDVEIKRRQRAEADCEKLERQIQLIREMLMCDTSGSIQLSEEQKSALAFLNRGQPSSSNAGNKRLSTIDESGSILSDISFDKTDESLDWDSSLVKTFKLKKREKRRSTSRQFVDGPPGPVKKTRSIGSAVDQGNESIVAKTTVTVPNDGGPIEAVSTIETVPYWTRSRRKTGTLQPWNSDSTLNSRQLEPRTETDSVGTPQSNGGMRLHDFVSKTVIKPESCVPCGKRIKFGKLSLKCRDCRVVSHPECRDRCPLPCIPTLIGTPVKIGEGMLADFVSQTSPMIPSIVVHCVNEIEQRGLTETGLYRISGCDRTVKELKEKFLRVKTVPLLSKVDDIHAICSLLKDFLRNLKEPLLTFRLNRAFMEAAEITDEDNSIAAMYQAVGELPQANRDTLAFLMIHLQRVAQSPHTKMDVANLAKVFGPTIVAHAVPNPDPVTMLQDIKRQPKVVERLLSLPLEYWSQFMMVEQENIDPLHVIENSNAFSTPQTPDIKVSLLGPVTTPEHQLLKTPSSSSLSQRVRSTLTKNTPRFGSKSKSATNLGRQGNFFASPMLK
# [21] = control 3'UTR Renilla luciferase suppression, dose response, counter-screen for Shn3 inhibitor project, cell-based, Clone20-Shn3RL, cherry-picked (AID 624133); type: functional
# Sequence of Paired box protein Pax-8 (Q06710 whole entry): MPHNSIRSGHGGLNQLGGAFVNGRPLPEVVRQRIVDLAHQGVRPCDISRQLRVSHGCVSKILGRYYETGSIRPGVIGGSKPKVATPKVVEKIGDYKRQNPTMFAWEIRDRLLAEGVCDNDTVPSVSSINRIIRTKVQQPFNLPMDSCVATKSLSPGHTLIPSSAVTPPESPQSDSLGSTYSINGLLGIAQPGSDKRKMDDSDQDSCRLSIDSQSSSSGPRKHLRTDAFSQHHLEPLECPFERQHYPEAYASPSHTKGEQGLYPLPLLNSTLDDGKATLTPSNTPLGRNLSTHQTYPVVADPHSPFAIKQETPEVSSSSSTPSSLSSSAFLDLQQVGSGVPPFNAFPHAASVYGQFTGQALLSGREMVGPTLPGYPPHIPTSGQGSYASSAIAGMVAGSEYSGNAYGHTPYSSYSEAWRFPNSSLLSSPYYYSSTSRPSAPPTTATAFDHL
# Sequence of Induced myeloid leukemia cell differentiation protein Mcl-1 (Q07820 whole entry): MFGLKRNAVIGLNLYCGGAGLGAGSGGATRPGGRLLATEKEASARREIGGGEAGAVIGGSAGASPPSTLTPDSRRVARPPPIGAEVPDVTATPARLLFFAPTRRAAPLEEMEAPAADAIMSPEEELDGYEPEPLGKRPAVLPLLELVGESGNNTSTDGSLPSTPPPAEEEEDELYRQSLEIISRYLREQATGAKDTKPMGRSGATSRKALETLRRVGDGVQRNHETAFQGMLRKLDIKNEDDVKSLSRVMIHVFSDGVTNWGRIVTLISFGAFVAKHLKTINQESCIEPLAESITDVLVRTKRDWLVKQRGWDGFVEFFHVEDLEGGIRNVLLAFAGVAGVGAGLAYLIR
# T1 sequence (P49327 whole entry, the tested form may be a part): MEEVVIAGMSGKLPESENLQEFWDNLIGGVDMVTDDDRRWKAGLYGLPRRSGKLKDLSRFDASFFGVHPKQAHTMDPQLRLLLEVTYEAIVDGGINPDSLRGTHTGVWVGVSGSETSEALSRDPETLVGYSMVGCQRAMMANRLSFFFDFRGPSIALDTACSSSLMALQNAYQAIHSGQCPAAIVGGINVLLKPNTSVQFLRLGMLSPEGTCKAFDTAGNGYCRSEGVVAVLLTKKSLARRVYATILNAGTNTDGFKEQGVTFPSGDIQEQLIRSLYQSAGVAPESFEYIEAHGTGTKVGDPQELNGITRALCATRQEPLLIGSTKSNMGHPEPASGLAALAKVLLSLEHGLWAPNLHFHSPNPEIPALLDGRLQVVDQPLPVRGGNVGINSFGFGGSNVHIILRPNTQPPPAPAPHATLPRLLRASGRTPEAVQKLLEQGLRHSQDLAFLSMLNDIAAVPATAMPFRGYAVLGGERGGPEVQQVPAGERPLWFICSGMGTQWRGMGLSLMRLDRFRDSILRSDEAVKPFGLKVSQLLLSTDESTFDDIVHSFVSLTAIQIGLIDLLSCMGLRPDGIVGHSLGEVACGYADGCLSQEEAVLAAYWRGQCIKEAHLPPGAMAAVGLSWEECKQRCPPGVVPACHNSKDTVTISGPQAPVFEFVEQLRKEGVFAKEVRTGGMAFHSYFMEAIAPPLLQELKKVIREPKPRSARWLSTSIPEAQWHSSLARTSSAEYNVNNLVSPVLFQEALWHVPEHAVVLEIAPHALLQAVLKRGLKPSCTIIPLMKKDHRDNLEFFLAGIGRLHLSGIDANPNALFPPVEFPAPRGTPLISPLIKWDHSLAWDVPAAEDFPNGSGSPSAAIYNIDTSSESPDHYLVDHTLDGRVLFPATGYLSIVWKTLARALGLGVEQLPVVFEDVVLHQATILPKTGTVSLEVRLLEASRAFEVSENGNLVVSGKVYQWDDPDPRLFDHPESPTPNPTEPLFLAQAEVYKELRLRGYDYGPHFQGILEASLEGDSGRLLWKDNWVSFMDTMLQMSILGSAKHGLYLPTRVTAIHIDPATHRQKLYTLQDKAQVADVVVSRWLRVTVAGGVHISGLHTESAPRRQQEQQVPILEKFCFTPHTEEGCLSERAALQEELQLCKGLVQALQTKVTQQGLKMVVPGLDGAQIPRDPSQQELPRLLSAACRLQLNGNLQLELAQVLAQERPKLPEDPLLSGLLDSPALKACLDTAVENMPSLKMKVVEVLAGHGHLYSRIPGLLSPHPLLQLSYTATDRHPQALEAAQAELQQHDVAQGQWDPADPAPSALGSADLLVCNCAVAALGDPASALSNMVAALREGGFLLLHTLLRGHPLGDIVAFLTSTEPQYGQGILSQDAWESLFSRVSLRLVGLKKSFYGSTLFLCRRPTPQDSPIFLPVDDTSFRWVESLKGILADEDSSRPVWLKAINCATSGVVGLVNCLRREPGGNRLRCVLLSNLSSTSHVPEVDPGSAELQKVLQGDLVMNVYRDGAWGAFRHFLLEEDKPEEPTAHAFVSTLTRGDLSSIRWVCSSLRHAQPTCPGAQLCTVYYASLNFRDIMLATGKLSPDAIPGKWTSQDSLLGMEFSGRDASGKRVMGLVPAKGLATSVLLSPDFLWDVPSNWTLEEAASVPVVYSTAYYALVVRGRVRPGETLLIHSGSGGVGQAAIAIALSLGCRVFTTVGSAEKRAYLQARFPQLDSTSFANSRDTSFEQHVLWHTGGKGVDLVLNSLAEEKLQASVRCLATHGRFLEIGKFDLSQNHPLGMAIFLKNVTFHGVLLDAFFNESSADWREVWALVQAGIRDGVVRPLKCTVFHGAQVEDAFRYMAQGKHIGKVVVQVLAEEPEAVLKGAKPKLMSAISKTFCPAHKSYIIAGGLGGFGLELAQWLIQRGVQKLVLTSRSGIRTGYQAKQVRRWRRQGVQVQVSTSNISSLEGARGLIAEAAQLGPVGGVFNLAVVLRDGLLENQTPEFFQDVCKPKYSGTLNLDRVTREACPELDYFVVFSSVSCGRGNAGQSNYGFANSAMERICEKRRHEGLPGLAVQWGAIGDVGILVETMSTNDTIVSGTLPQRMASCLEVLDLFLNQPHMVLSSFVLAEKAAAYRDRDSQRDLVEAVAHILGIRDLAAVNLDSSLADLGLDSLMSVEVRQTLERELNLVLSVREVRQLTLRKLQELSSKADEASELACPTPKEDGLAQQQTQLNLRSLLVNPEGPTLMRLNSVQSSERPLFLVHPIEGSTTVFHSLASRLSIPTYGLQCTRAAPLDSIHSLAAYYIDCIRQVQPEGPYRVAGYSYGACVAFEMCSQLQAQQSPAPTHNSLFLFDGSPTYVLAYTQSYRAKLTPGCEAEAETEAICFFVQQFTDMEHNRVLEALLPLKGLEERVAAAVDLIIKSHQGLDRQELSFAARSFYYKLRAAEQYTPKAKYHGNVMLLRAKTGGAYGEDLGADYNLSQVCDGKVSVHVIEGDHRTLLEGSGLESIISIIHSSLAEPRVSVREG
# Sequence of Glyceraldehyde-3-phosphate dehydrogenase (P04406 whole entry): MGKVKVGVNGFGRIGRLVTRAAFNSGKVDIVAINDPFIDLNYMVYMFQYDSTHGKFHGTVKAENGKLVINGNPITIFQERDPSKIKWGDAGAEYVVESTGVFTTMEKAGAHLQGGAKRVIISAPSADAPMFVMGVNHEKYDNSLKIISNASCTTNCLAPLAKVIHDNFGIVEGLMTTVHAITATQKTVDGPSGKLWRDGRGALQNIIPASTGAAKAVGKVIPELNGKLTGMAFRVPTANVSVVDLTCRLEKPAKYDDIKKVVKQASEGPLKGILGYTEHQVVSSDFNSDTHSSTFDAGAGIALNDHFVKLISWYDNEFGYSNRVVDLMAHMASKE
# T3 sequence (P11940 whole entry): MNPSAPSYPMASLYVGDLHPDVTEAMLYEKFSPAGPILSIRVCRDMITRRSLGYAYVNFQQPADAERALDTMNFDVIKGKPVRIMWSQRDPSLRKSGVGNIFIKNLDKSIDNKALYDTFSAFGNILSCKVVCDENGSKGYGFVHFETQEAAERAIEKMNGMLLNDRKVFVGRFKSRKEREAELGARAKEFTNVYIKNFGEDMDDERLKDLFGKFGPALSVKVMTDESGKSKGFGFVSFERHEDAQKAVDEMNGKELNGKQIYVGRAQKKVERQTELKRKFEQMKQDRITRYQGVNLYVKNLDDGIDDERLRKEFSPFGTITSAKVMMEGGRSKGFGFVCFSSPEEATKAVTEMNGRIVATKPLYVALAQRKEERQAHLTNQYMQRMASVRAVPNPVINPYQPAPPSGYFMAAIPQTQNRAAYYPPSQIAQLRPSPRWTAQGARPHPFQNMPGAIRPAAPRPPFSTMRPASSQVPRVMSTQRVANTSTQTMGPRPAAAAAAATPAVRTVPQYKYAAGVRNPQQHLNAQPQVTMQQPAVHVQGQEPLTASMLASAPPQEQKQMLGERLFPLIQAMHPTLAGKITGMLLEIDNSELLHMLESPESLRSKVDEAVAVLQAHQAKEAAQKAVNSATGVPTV
# Sequence of FAD-linked sulfhydryl oxidase ALR (P55789 whole entry): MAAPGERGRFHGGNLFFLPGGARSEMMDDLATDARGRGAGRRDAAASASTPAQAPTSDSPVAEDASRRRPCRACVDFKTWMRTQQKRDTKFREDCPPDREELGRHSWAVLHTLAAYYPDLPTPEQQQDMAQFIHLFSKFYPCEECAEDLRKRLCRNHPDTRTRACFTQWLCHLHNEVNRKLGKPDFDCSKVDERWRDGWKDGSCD
smiles,measurement,setting,value
COc1cccc(N2C(=O)C(Cl)=C(N3CCN(CCO)CC3)C2=O)c1,IC50,[1],> 50 µM (inconclusive)
O=C(C[C@@H]1C[C@H]2c3cc(NC(=O)C4CCOCC4)ccc3O[C@H]2[C@H](CO)O1)NCc1ccc(Oc2ccccc2)cc1,AC50,Paired box protein Pax-8,34.3 µM (active)
N=C(N)SCc1cccc([N+](=O)[O-])c1,GI50,P388/ADR,15.7 µM (inactive)
same,GI50,SN12K1,32.7 µM (inactive)
same,GI50,P388,15.5 µM (inactive)
Cc1ccc(N2C(=O)C(Cl)=C(N3CCOCC3)C2=O)cc1,IC50,[1],> 50 µM (inconclusive)
CN1CCC23c4ccccc4NC1C21CCN(C)C3Nc2ccccc21,GI50,P388/ADR,> 254 µM (inactive)
same,GI50,SN12K1,202 µM (inactive)
same,GI50,P388,57.7 µM (inactive)
O=C(NN1C(=O)C2C(c3ccccc3)C=CC(c3ccccc3)C2C1=O)c1cccc(Br)c1 (stereo not given),IC50,Fatty acid synthase [2],12.1 µM (active)
same,IC50,Fatty acid synthase [3],9.22 µM (active)
NS(=O)(=O)OCCCCCCCOS(N)(=O)=O,GI50,P388/ADR,> 83 µM (inactive)
same,GI50,SN12K1,273 µM (inactive)
same,GI50,P388,35.1 µM (inactive)
c1cc2c3c(c1)c1cc4c(cc1c[n+]3CC2)OCO4 [ANHYDROLYCORINIUM CHLORIDE],GI50,P388/ADR,22 µM (inactive)
same,GI50,SN12K1,1.95 µM (inactive)
same,GI50,P388,0.515 µM (active)
COc1ccc(NC(=O)c2ccccc2N(Cc2ccccc2)S(C)(=O)=O)cc1,IC50,[4],40.6 µM (not active)
CCO[C@H]1OC(C(=O)N2CCN(Cc3ccccc3)CC2)=C[C@@H](c2ccc(C(F)(F)F)cc2)[C@@H]1CCCO,AC50,Paired box protein Pax-8,14.3 µM (active)
CCOC(=O)c1cnc2c(C)cc(Cl)cc2c1N1CCN(C)CC1,IC50,[5],11.5 µM (active)
O=C(c1ccc(Cl)c(S(=O)(=O)N2CCCC2)c1)N1CCN(c2ccccc2)CC1,IC50,[5],6.61 µM (active)
CCCC#Cc1ccc([C@@H]2[C@H]3CN(S(=O)(=O)c4ccccc4F)CCCCN3[C@H]2CO)cc1,AC50,Paired box protein Pax-8,22.4 µM (active)
Cc1nc2ccccc2c2nc3ccccc3n12,CC50,[6],> 40 µM (active)
CC(C)(C)C(=O)/C(=C\c1cccc([N+](=O)[O-])c1)n1cncn1,CC50,[6],4.33 µM (active)
Cc1ccc(-c2csc3nc(C(C)C)oc(=O)c23)c(C)c1,IC50,Fatty acid synthase [2],1.32 µM (active)
same,IC50,Fatty acid synthase [3],0.761 µM (active)
O=P(NCCCO)(OCc1ccccc1)N(CCCl)CCCl (stereo not given),GI50,P388/ADR,> 100 µM (inactive)
same,GI50,SN12K1,> 100 µM (inactive)
same,GI50,P388,> 100 µM (inactive)
CC(=C/c1ccccc1)/C=N/Nc1nc(N2CCCCC2)nc(N2CCCCC2)n1,EC50,[7],24 µM (active)
same,EC50,[8],21.6 µM (active)
NC(CSC(c1ccccc1)(c1ccccc1)c1ccccc1)C(=O)O (stereo not given),GI50,P388/ADR,5.43 µM (inactive)
same,GI50,SN12K1,0.352 µM (active)
same,GI50,P388,0.494 µM (active)
CC(=O)Oc1cc2c(cc1OC(C)=O)OCC(c1ccc(C)cc1)C2 (stereo not given),GI50,P388/ADR,3.05 µM (inactive)
same,GI50,SN12K1,14 µM (inactive)
same,GI50,P388,2.87 µM (inactive)
COC(=O)c1ccc(C2c3c(oc4ccc(Cl)cc4c3=O)C(=O)N2CCN2CCOCC2)cc1 (stereo not given),IC50,Fatty acid synthase [2],14.6 µM (active)
same,IC50,Fatty acid synthase [3],11.6 µM (active)
N#C/C(=C\c1ccc(C(=O)O)cc1)c1nc(O)c2c3c(sc2n1)CCCC3,IC50,[4],3.52 µM (active)
CC(C)n1c(O)c(N=NC(=O)Cc2csc(N3CCOCC3)n2)c2ccccc21,IC50,[5],13.5 µM (active)
CCCn1c(CN2CCN(c3cccc(Cl)c3)CC2)nc2c1c(=O)n(C)c(=O)n2C,IC50,[5],14.2 µM (active)
same,EC50,[7],39.9 µM (active)
same,EC50,[8],33.1 µM (active)
CN(C)CCN1C(=O)c2cccc3cc([N+](=O)[O-])cc(c23)C1=O [MITONAFIDE],IC50,[9],> 66 µM (inactive)
same,IC50,[10],43.4 µM (inactive)
same,AC50,[11],1.11 µM (active)
same,AC50,[12],2.2 µM (active)
Fc1cccc(Cc2noc(CN3CCC(c4ccncc4)CC3)n2)c1,EC50,[13],> 60 µM (not active)
same,IC50,[5],14.5 µM (active)
same,EC50,[14],2.11 µM (active)
Cc1cc(NC(=O)COC(=O)c2cc([N+](=O)[O-])ccc2N2CCOCC2)ccc1Br,IC50,Fatty acid synthase [2],2.82 µM (active)
same,IC50,Fatty acid synthase [3],4.33 µM (active)
COc1cccc(-c2ccc3c(c2)[C@@H]2[C@@H](CCN2C(=O)NC2CCCCC2)[C@H](CO)N3C)c1,AC50,Paired box protein Pax-8,10.9 µM (active)
Cn1nc(-c2ccccc2F)c2cc(C(=O)Nc3ccc4c(c3)OCCO4)sc21,AC50,[15],3.48 µM (active)
same,CC50,[6],> 40 µM (active)
same,CC50,[16],26.9 µM (active)
same,IC50,H9c2,> 79 µM (inactive)
Cc1nn(-c2ccccc2)c(N)c1N=Nc1ccc(Cl)cc1,CC50,[6],> 40 µM (active)
same,EC50,[17],5.82 µM (active)
same,EC50,[18],22.8 µM (inconclusive)
CCOc1nc(SCCOc2ccc(C)cc2)nc(N(C)C)n1,EC50,[7],45 µM (active)
same,EC50,[8],56.2 µM (active)
Cc1cc(NS(=O)(=O)c2ccc(NC(=O)C(F)(F)F)cc2)no1,IC50,[1],> 100 µM (not active)
O=C(Nc1ccc(Nc2ccccc2)cc1)C1CC1,AC50,[19],0.875 µM (active)
same,IC50,[20],50.8 µM (active)
Cc1cc(C)cc(NC(=O)c2ccc(Cn3nc(C)c(Cl)c3C)o2)c1,CC50,[6],> 40 µM (active)
same,CC50,[16],23.5 µM (active)
CN(C)C1=C(Cl)C(=O)N(c2ccnc(Cl)c2)C1=O,IC50,[1],> 50 µM (inconclusive)
COCCCNCCOCCOc1ccc(Cl)cc1C(C)(C)C,EC50,[7],14.9 µM (active)
same,EC50,[8],14.3 µM (active)
O=[N+]([O-])c1cccc(S(=O)(=O)NCc2ccncc2)c1,AC50,[11],3.09 µM (active)
same,AC50,[12],48.4 µM (active)
CC(C)(C)OC(=O)NCCc1onc(-c2cccc([N+](=O)[O-])c2)c1C(=O)O,IC50,Fatty acid synthase [2],1.47 µM (active)
same,IC50,Fatty acid synthase [3],1.16 µM (active)
COc1cc(CNCCc2ccc(S(N)(=O)=O)cc2)ccc1OCc1ccc(Cl)cc1,EC50,[13],> 60 µM (not active)
same,EC50,[7],9.48 µM (active)
same,EC50,[8],7.47 µM (active)
same,EC50,[14],0.43 µM (active)
CCOc1cc(/C=C2/S/C(=N/c3ccccc3)N(Cc3cccnc3)C2=O)ccc1OCC#N,EC50,[7],26.9 µM (active)
same,EC50,[8],32.5 µM (active)
O=C(C1=C[C@@H](c2ccc(C(F)(F)F)cc2)C[C@@H](OCc2ccc(CO)cc2)O1)N1CCN(Cc2ccccc2)CC1,IC50,[4],1.48 µM (not active)
COc1ccccc1Cc1c(-c2ccco2)nc2c(C)cc(Br)cn12,AC50,[21],5.7 µM (active)
same,AC50,[11],1.9 µM (active)
same,AC50,[12],45.6 µM (active)
